Reference: ChEMBL document CHEMBL4837212, “Cytotoxic Compounds from the Stem Bark of Two subsp. of Bersama abyssinica” (J Nat Prod, 2021)
pIC50: −log10 of the molar value. Converted amounts (≈) assume the structure as drawn. The source made the active and inactive calls. The rule behind the calls is not given here.

Assays:
Staphylococcus aureus = experiment: Antibacterial activity against Staphylococcus aureus DSM 346 assessed as growth inhibition by serial dilution assay; format: functional
Bacillus subtilis = experiment: Antibacterial activity against Bacillus subtilis DSM 10 assessed as growth inhibition by serial dilution assay; format: functional
[1] = test system: Mycolicibacterium smegmatis; experiment: Antibacterial activity against Mycobacterium smegmatis DSM ATCC 700084 assessed as growth inhibition by serial dilution assay; format: functional, organism-based
Escherichia coli [2] = experiment: Antibacterial activity against Escherichia coli ATCC 8739 assessed as inhibition of bacterial growth measured after 18 hrs by Alamar blue assay; format: functional
Escherichia coli [3] = experiment: Antibacterial activity against Escherichia coli DSM 1116 assessed as growth inhibition by serial dilution assay; format: functional
KB 3-1 = experiment: Cytotoxicity in human KB 3-1 cells assessed as reduction in cell viability measured after 5 days by MTT assay; format: functional, cell-based; details: KB 3-1, 120 h

Compound	MIC (Staphylococcus aureus) [µM]	MIC (Bacillus subtilis) [µM]	Activity [1]	MIC (Escherichia coli [2]) [µM]	MIC (Escherichia coli [3]) [µM]	pIC50 (KB 3-1)
O=c1c2cc(O)c(O)cc2oc2cc(O)c([C@H]3O[C@@H](CO)[C@H](O)[C@@H](O)[C@@H]3O)c(O)c12	158 (≈ 66.7 µg/mL)	158 (≈ 66.7 µg/mL)	inactive	36.7 (≈ 15.5 µg/mL)	–	–
O=C(OC[C@H]1O[C@@H](OC(=O)c2cc(O)c(O)c(O)c2)[C@H](OC(=O)c2cc(O)c(O)c(O)c2)[C@@H](OC(=O)c2cc(O)c(O)c(O)c2)[C@@H]1O)c1cc(O)c(O)c(O)c1	–	–	inactive	–	–	–
O=C(OC[C@H]1O[C@@H](OC(=O)c2cc(O)c(O)c(O)c2)[C@H](OC(=O)c2cc(O)c(O)c(O)c2)[C@@H](O)[C@@H]1O)c1cc(O)c(O)c(O)c1	–	–	inactive	–	52.4 (≈ 33.4 µg/mL)	–
COC1=C2[C@@H]3CC[C@@]45C[C@@H]6C[C@@H](OC(C)(O6)O4)[C@]5(C)[C@H]3CC[C@]2(C)[C@@H](c2ccc(=O)oc2)C1=O	142 (≈ 66.8 µg/mL)	–	inactive	–	–	–
CC12O[C@H]3C[C@@H](O1)[C@]1(C)[C@H]4CC[C@]5(C)[C@@H](c6ccc(=O)oc6)[C@@H](O)C[C@]5(O)[C@@H]4CC[C@@]1(C3)O2	–	–	inactive	–	–	5.80
CC12O[C@H]3C[C@@H](O1)[C@]1(C)[C@H]4CC[C@@]5(C)C(=CC(=O)[C@@H]5c5ccc(=O)oc5)[C@@H]4CC[C@@]1(C3)O2	152 (≈ 66.7 µg/mL)	–	inactive	–	–	5.85
